Values after ≈ are worked out from the molar mass of the structure shown. Like-named read-outs stand apart in the source and are kept apart here. Bounds are passed on as bounds.

Data set [1] in a line: Acute toxicity test (intravenous LD50). As to conditions: mouse, in vivo, mice (ICR strain, male, 18-24 g). From the text:
The LD50 values of the representative compounds of this invention when administered intravenously to mice (ICR strain, male, 18-24 g) are shown in Table 2.

The subject of data set [2] is Ent. cloacae IID977. The experiment in a line: Antibacterial activity (MIC), agar dilution. The class given is cell-based. As to conditions: Enterobacter cloacae, IID977, 20 h, Ent. cloacae IID977; 10^6 cells per ml; 37° C., 20 hours; read-out: MIC. The text has this: (§1) The amount of bacteria inoculated was 10^4 cells per plate (10^6 cells per ml).
On the technique in general: Agar dilution tests growth on a series of plates holding different concentrations.

In data set [3] the test system is Ps. aeruginosa S-68. Put plainly: Antibacterial activity (MIC), agar dilution. As to conditions: Pseudomonas aeruginosa. Format: cell-based.
From the text: as §1

Data set [4] concerns Aci. antitratus A-6. Put plainly: Antibacterial activity (MIC), agar dilution. Format: cell-based. As to conditions: 20 h, Aci. antitratus A-6; 10^6 cells per ml; 37° C., 20 hours; read-out: MIC.
From the text: as §1

In data set [5] the test system is Ps. aeruginosa IFO3445. The experiment in a line: Antibacterial activity (MIC), agar dilution. Format: cell-based. The conditions noted are these: Pseudomonas aeruginosa; Ps. aeruginosa IFO3445; 10^6 cells per ml; 37° C., 20 hours; read-out: MIC.
From the text: as §1

The subject of data set [6] is St. aureus FDA209P. The experiment in a line: Antibacterial activity (MIC), agar dilution. The class given is cell-based. The conditions noted are these: Staphylococcus aureus, FDA209P, 20 h, St. aureus FDA209P; 10^6 cells per ml; 37° C., 20 hours; read-out: MIC.
From the text: as §1

Data set [7] deals with Kl. pneumoniae Y-50. Put plainly: Antibacterial activity (MIC), agar dilution. Format: cell-based. The conditions noted are these: Klebsiella pneumoniae, Y50, 20 h, 10^6 cells per ml, 37° C., read-out: MIC.
From the text: as §1

In data set [8] the test system is Pro. vulgaris GN3027. Put plainly: Antibacterial activity (MIC), agar dilution. The class given is cell-based. As to conditions: Proteus vulgaris, GN3027, 20 h, Pro. vulgaris GN3027; 10^6 cells per ml; 37° C., 20 hours; read-out: MIC.
From the text: as §1

The test system of data set [9] is Pro. mirabilis T-111. The experiment in a line: Antibacterial activity (MIC), agar dilution. The class given is cell-based. The conditions noted are these: Proteus mirabilis, T111, 20 h, 10^6 cells per ml, 37° C.
From the text: as §1

The subject of data set [10] is E. coli NIHJ JC-2. Put plainly: Antibacterial activity (MIC), agar dilution. Format: cell-based. The conditions noted are these: Escherichia coli, NIHJJC2, 20 h, E. coli NIHJ JC-2; 10^6 cells per ml; 37° C., 20 hours; read-out: MIC.
From the text: as §1

Data set [11] has as its system Pro. morganii T-216. The experiment in a line: Antibacterial activity (MIC), agar dilution. Format: cell-based. The conditions noted are these: Morganella morganii, T216, 20 h, 10^6 cells per ml, 37° C.
From the text: as §1

Data set [12] relates to Kl. pneumoniae Y-41. Put plainly: Antibacterial activity (MIC), agar dilution. The class given is cell-based. As to conditions: Klebsiella pneumoniae, Y41, 10^6 cells per ml, 37° C., 20 hours, read-out: MIC.
From the text: as §1

Data set [13] relates to E. coli TK-111. Put plainly: Antibacterial activity (MIC), agar dilution. Format: cell-based. The conditions noted are these: Escherichia coli, TK111, 20 h, E. coli TK-111; 10^6 cells per ml; 37° C., 20 hours; read-out: MIC.
From the text: as §1

Data set [14] concerns Ps. aeruginosa GN918**. Put plainly: Antibacterial activity (MIC), agar dilution. Format: cell-based. The conditions noted are these: Ps. aeruginosa GN918, cephalospolinase-producing, 10^6 cells per ml.
From the text: as §1
(§2) ** Cephalospolinase-producing bacteria

The subject of data set [15] is E. coli GN5482**. The experiment in a line: Antibacterial activity (MIC), agar dilution. The class given is cell-based. As to conditions: Escherichia coli, 20 h; E. coli GN5482, cephalospolinase-producing; 10^6 cells per ml; read-out: MIC.
From the text: as §1, §2

For data set [16], the system named is Pro. vulgaris GN76**. The experiment in a line: Antibacterial activity (MIC), agar dilution. The conditions noted are these: Proteus vulgaris, 20 h; Pro. vulgaris GN76, cephalospolinase-producing; 10^6 cells per ml; read-out: MIC. The class given is cell-based.
From the text: as §1, §2

Data set [17] relates to Kl. pneumoniae Y-4*. Put plainly: Antibacterial activity (MIC), agar dilution. The class given is cell-based. As to conditions: Klebsiella pneumoniae, 20 h, Kl. pneumoniae Y-4, penicillinase-producing; 10^6 cells per ml; read-out: MIC.
From the text: as §1
(§3) * Penicillinase-producing bacteria

Data set [18] has as its system St. aureus F-137*. The experiment in a line: Antibacterial activity (MIC), agar dilution. Format: cell-based. The conditions noted are these: Staphylococcus aureus, 20 h, St. aureus F-137, penicillinase-producing; 10^6 cells per ml; read-out: MIC.
From the text: as §1, §3

Data set [19] has as its system Ps. aeruginosa GN3379*. The experiment in a line: Antibacterial activity (MIC), agar dilution. The conditions noted are these: Pseudomonas aeruginosa, 20 h; Ps. aeruginosa GN3379, penicillinase-producing; 10^6 cells per ml; read-out: MIC. Format: cell-based.
From the text: as §1, §3

The subject of data set [20] is E. coli TK-3*. Put plainly: Antibacterial activity (MIC), agar dilution. The class given is cell-based. The conditions noted are these: Escherichia coli, 20 h, E. coli TK-3, penicillinase-producing; 10^6 cells per ml; read-out: MIC.
From the text: as §1, §3

Setting [21] is: S68, Ps. aeruginosa S-68, 10^6 cells per ml, 37° C., 20 hours, read-out: MIC.
[22] abbreviates: Pseudomonas aeruginosa, GN918, 20 h.

The compound `CN(C)c1ccc(-c2cc(=O)c(C(=O)O)cn2-c2ccc(O)cc2)cc1` [drawing 217] showed an LD50 in [1] of over 200 mg/kg.

The compound `O=C(O)c1cn(-c2ccc(F)cc2)c(C=Cc2cccnc2)cc1=O` [drawing 215] gave an LD50 in data set [1] of over 200 mg/kg.

Compound `O=C(O)c1cn(-c2ccc(F)cc2)c(-c2ccc(NCCO)cc2)cc1=O` [drawing 219] had an LD50 in [1] of over 200 mg/kg.

In data set [1], `Cc1cc(O)ccc1-n1cc(C(=O)O)c(=O)cc1C1CCCCC1` [drawing 221] registered an LD50 of over 200 mg/kg.

Take `Cc1cc(O)ccc1-n1cc(C(=O)O)c(=O)cc1C1CCCC1`: the minimal inhibitory concentration (MIC) in [2] is 1.56 µg/mL (≈ 4.98 µM); in [3] (setting [21]) it was 12.5 µg/mL (≈ 39.9 µM); in data set [4], 0.78 µg/mL (≈ 2.49 µM); in data set [5], 12.5 µg/mL (≈ 39.9 µM); in data set [6] it was 0.78 µg/mL (≈ 2.49 µM); in data set [7], 0.78 µg/mL (≈ 2.49 µM). Moreover, the MIC in data set [8] is at most 0.05 µg/mL; in data set [9] it was 3.13 µg/mL (≈ 9.99 µM); in data set [10], 0.78 µg/mL (≈ 2.49 µM); in data set [11], 3.13 µg/mL (≈ 9.99 µM); in [12], 3.13 µg/mL (≈ 9.99 µM); in data set [13], 0.39 µg/mL (≈ 1.24 µM). Besides, the MIC in data set [14] (setting [22]) was 3.13 µg/mL (≈ 9.99 µM); in [15] it was 0.2 µg/mL (≈ 0.638 µM); in [16] it was 0.78 µg/mL (≈ 2.49 µM); in [17], 6.25 µg/mL (≈ 19.9 µM); in data set [18], 0.39 µg/mL (≈ 1.24 µM); in data set [19], 25 µg/mL (≈ 79.8 µM). Moreover, the MIC in [20] is 1.56 µg/mL (≈ 4.98 µM).

As for `COc1ccc(-c2cc(=O)c(C(=O)O)cn2-c2ccc(O)cc2C)cc1F`, the MIC was 0.39 µg/mL (≈ 1.06 µM) in data set [2]; 6.25 µg/mL (≈ 16.9 µM) in data set [3] (setting [21]); 0.39 µg/mL (≈ 1.06 µM) in data set [4]; 12.5 µg/mL (≈ 33.8 µM) in data set [5]; 0.1 µg/mL (≈ 0.271 µM) in data set [6]; 0.78 µg/mL (≈ 2.11 µM) in [7]. Also, the minimal inhibitory concentration (MIC) was 0.1 µg/mL (≈ 0.271 µM) in [8]; 1.56 µg/mL (≈ 4.22 µM) in data set [9]; 0.39 µg/mL (≈ 1.06 µM) in data set [10]; 1.56 µg/mL (≈ 4.22 µM) in data set [11]; 1.56 µg/mL (≈ 4.22 µM) in data set [12]; at most 0.05 µg/mL in data set [13]. Moreover, the minimal inhibitory concentration (MIC) is 1.56 µg/mL (≈ 4.22 µM) in data set [14] (setting [22]); at most 0.05 µg/mL in data set [15]; 0.39 µg/mL (≈ 1.06 µM) in [16]; 1.56 µg/mL (≈ 4.22 µM) in data set [17]; 0.1 µg/mL (≈ 0.271 µM) in data set [18]; 12.5 µg/mL (≈ 33.8 µM) in [19]. Also, the MIC in [20] was found to be 0.39 µg/mL (≈ 1.06 µM).

As for `CC(=O)Oc1ccc(-n2cc(C(=O)OCCN(C)C)c(=O)cc2-c2ccc(N(C)C)cc2)cc1` [drawing 37], the MIC in [2] is 1.56 µg/mL (≈ 3.37 µM); in data set [3] (S68, 20 h), 6.25 µg/mL (≈ 13.5 µM); in data set [4], 0.39 µg/mL (≈ 0.841 µM); in data set [5], 12.5 µg/mL (≈ 27 µM); in data set [6], 0.39 µg/mL (≈ 0.841 µM); in data set [7], 0.78 µg/mL (≈ 1.68 µM). Further, the minimal inhibitory concentration (MIC) worked out at 0.39 µg/mL (≈ 0.841 µM) in data set [8]; 6.25 µg/mL (≈ 13.5 µM) in data set [9]; 0.39 µg/mL (≈ 0.841 µM) in data set [10]; 3.13 µg/mL (≈ 6.75 µM) in data set [11]; 3.13 µg/mL (≈ 6.75 µM) in data set [12]; 0.2 µg/mL (≈ 0.431 µM) in [13]. For the same compound, the MIC in data set [14] was 3.13 µg/mL (≈ 6.75 µM); in data set [15], at most 0.05 µg/mL; in data set [16], 1.56 µg/mL (≈ 3.37 µM); in data set [17], 6.25 µg/mL (≈ 13.5 µM); in data set [18], 0.39 µg/mL (≈ 0.841 µM); in data set [19] it was 12.5 µg/mL (≈ 27 µM). Besides, the minimum inhibitory concentration (MIC) in [20] was 1.56 µg/mL (≈ 3.37 µM).

As usually defined, the LD50 is the dose at which mortality reaches 50%. The term MIC denotes the lowest concentration found to suppress growth.

The values above are taken from US4698352A, “4-oxo-1,4-dihydronicotinic acid derivatives, salts thereof, and antibacterial agents containing the same” (Toyama Chemical Co., Ltd., priority 1982, dated 1987).
